SMILES strings stand for the structures.

Test [1] deals with HSP90α (Hsp90aa1) and HSP90β (Hsp90ab1). Put plainly: Streptavidin-mediated immunoprecipitation and mass spectrum analysis of biotin-labeled protein in 4T1 lysate. The test is classed as cell-based, murine. To be noted: 4T1 cell lysate. As for the experimental part: Streptavidin-mediated immunoprecipitation and mass spectrum analysis: 2×10^6 4T1 cells were seeded in T75 culture flasks and cultured for 24 h. Then, the medium in the corresponding flasks was replaced with 15 mL of blank medium with DMSO or HAC-B (10 μM). Following incubation for another 2 h, the cells were washed with cold PBS twice and digested with 2 mL trypsin. The cell pellets were collected through centrifugation at 1,200 rpm for 3 min and washed with cold PBS. The final pellets were directly lysed on ice with IP lysis buffer (50 mM Tris-HCl, pH 7.4; 150 mM NaCl; 2 mM EDTA; 1% NP-40) containing PMSF (1 mM) and the phosphatase inhibitor cocktail for 30 min. The lysates were collected and centrifuged at 10,000 g for 10 minutes at 4° C. The total proteins in the supernatants were quantified through the BCA assay, and 20 μL of lysate supernatants were saved as the input samples. To totally pull down the biotin-labeled contents, 150 μL of Pierce™ streptavidin magnetic beads was added to each supernatant, and the resulting mixtures were incubated at 4° C. with a gentle rotation overnight. Subsequently, the supernatant was discarded by placing the tubes on a magnetic rack, and the obtained magnetic beads were washed with IP lysis buffer three times. […] Finally, the bands were treated with ECL western blot substrate and detected by the iBright™ imaging system. […]

Another test concerns WT MDA-MB-231 cells. Put plainly: In-gel fluorescence detection of NA-647 internalization in WT MDA-MB-231 cells. The test is classed as cell-based, human. As for the experimental part: (§1) In-gel fluorescence detection: In-gel fluorescence was mainly used to investigate the internalization of NeutrAvidin™_647 in HAC-B-treated cancer cells.
(§2) Sample preparation: 4T1 or WT MDA-MB-231 cells were seeded in 6-well culture plates with a density of 5×10^4 cells in each well and cultured for 24 h. If HAI pretreatment was performed, the cells were incubated in the HAI-containing blank medium at different concentrations for 2 h and washed with PBS twice before the following treatments. Then, the cells were treated with free HAC-B or the combinations of various ligands at the indicated concentrations for the predetermined time points. Next, the drug-containing medium was removed, and PBS was used to wash the cells twice, followed by incubating the cells in the blank medium containing NeutrAvidin™ DyLight™ 650 (NA-647, Invitrogen/84607) at 0.5 μM for 1 h. Finally, the cells were washed with PBS and lysed on ice with the RIPA buffer containing PMSF (1 mM) and the phosphatase inhibitor cocktail for 30 min. A s for the 4T1 cells cotreated with NA-647 and HAC-B, the cells after 24-h incubation were treated with the blank medium containing NA-647 at 0.5 μM and HAC-B at various concentrations for 2 h before cell lysis.
In-gel fluorescence imaging: After 30-min lysis, the lysates were centrifuged at 10,000 g for 10 minutes at 4° C., and the corresponding supernatants were collected, followed by quantification of the total proteins in the supernatant through the BCA assay. Afterward, the proteins in the supernatant were mixed with ¼ volume of 5× sample buffer formulated by Tris-HCl (pH 6.8, 312.5 mM), sucrose (25%), SDS (10%), bromophenol blue (0.025%), and dithiothreitol (DTT, 250 mM). After incubation for 1 h at room temperature, equal amounts of proteins from different samples ([…] per lane) were loaded into the 12% Bis-Tris gel. After the proteins were separated, the gels were subjected to fluorescence imaging with the ChemiDoc™ MP imaging system (Bio-Rad).

The test system of another test is 4T1 cells. Put plainly: In-gel fluorescence detection of NA-647 internalization in 4T1 cells cotreated with HAC-B. The class given is cell-based, murine. To be noted: 4T1 cells cotreated with HAC-B (all concentrations) and NA-647, 2 h. As for the experimental part: as §1
as §2, with “Finally, the cells were washed with PBS and lysed on ice with the RIPA buffer containing PMSF (1 mM) and the phosphatase inhibitor cocktail for 30 min. A s for the 4T1 cells cotreated with NA-647 and HAC-B, the cells after 24-h incubation were treated with the blank medium containing NA-647 at 0.5 μM and HAC-B at various concentrations for 2 h before cell lysis.” left out
In-gel fluorescence imaging: After 30-min lysis, the lysates were centrifuged at 10,000 g for 10 minutes at 4° C., and the corresponding supernatants were collected, followed by quantification of the total proteins in the supernatant through the BCA assay. […] After the proteins were separated, the gels were subjected to fluorescence imaging with the ChemiDoc™ MP imaging system (Bio-Rad).

Regarding `N#CCN(C(=O)CCCC[C@@H]1SC[C@@H]2NC(=O)N[C@@H]21)S(=O)(=O)c1ccc(C(=O)NCCCn2c(Sc3cc4c(cc3I)OCO4)nc3c(N)ncnc32)cc1` [HAC-B, N-(3-(6-amino-8-((6-iodobenzo[d][1,3]dioxol-5-yl)thio)-9H-purin-9-yl)propyl)-4-(N-(cyanomethyl)-N-(5-((3aS,4S,6aR)-2-oxohexahydro-1H-thieno[3,4-d]imidazol-4-yl)pentanoyl)sulfamoyl)benzamide], in test [1] (10 μM, 2 h, vs sample without treatment), the “biotin-labeled protein immunoprecipitated by streptavidin beads (gel, immunoblot)” value is reported as “an additional HSP90 band appeared in the gel”. Further, in test [1] (streptavidin IP), the “protein identification on IP samples through mass spectrum” value was “could bind to both isoforms of HSP90, HSP90α (Hsp90aa1) and HSP90β (Hsp90ab1), with a favorable selectivity”. For the same compound, the “internalization of NA-647 after optimized pretreatment” value in the test on WT MDA-MB-231 cells (HAC-B pretreatment 5 μM, 4 h) is “substantially internalize NA-647”. Besides, the “internalization of extracellular NA-647” value with WT MDA-MB-231 cells (WT MDA-MB-231 cells, HAC-B pretreatment, then NA-647 0.5 μM 1 h) is “enhance the internalization of extracellular NA-647 in a time and concentration-dependent manner”. In addition, the “internalization of NA-647 on cotreatment” value in the test with 4T1 cells was “failed to internalize NA-647 in a large quantity within 2 h”.

Values taken from patent publication US20250327028A1, “ENGINEERED PLATELETS AS TARGETED PROTEIN DEGRADERS” (Wisconsin Alumni Research Foundation, priority 2024, published 2025).
